Reference: US3951987A, “Tetrahydropyridine derivatives” (priority 1975, dated 1976)

Tests used:
[1] = test system: rats; assay: Standard "open field" test (50 percent decrease in the number of diameter crossings vs untreated controls); assay type: in vivo; conditions: Rattus norvegicus, po, read-out: ED50 (dosage which caused a 50 percent decrease in the number of diameter crossings)
Text: The dosage which caused a 50 percent decrease (in comparison to the untreated controls) in the number of diameter crossings is expressed as the ED50.

[2] = Toxicity (mouse), p.o.; conditions: in vivo, po

SMILES: CCC(=O)Nc1ccc(OCCN2CC=C(c3ccc(F)cc3)CC2)cc1 [4'-[2-[4-(p-fluoro-phenyl)-3,6-dihydro-1(2H)-pyridyl)-ethoxy]-propionanilide]
- ED50 [1]: 0.6 mg/kg
- LD50 [2]: 150 to 300 mg/kg

SMILES: Nc1ccc(OCCN2CC=C(c3ccc(F)cc3)CC2)cc1 [p-[2-[4-(p-fluoro-phenyl)-3,6-dihydro-1(2H)-pyridyl]-ethoxy]-aniline]
- ED50 [1]: 0.6 mg/kg
- LD50 [2]: 250 to 500 mg/kg

SMILES: CC(=O)Nc1ccc(OCCN2CC=C(c3ccc(F)cc3)CC2)cc1 [4'-{2-[4-(p-fluorophenyl)-3,6-dihydro-1(2H)-pyridyl]ethoxy}acetanilide]
- ED50 [1]: 0.6 mg/kg
- LD50 [2]: 250 to 500 mg/kg
